Like-named read-outs stand apart in the source and are kept apart here.
How the values were obtained:
[1] = tested on: methicillin-resistant S. aureus (MRSA); experiment: Growth inhibition assay, MRSA; type: cell-based, Staphylococcus aureus; conditions: 24 h
Experimental: To determine IC50/80 values, growth (optical density) of S. aureus, methicillin-resistant S. aureus (MRSA), P. aeruginosa, and K. pneumoniae when treated with a range of concentrations of each active compound in vitro was measured at 600 nm after a 24 h incubation period at 37 °C. Each compound was studied for activity below […], and those showing little activity above 200 μM, were noted as such, and omitted from further study.
Staphylococcus aureus culture conditions […]
Methicillin-resistant Staphylococcus aureus culture conditions
Methicillin-resistant S. aureus (clinical isolate – St. James’ University Hospital, Dublin) was cultured at 37 °C in Nutrient broth (Oxoid), containing 25 µg/mL Ampicillin in an orbital shaker at 200 rpm. Stocks were kept on nutrient agar containing 25 µg/mL Ampicillin, stored at 4 °C for up to 2 months, or as glycerol stocks (50/50 glycerol:culture), stored at -70 °C indefinitely. […]
Bacterial cultures were brought to early stationary phase overnight, in nutrient broth (containing 25/50 µg/mL Ampicillin for MRSA/K. pneumoniae, respectively) at 37 °C. Cultures were diluted to an OD600 = 0.01. Aliquots of Culture (100 µl) were added to 100 µL serially diluted compound (200 – 0.78 µM) in nutrient broth in a 96-well plate (Sarstedt, Germany).
Plates were incubated at 37 °C for 24 h and growth was measured at 600 nm, where growth was measured and represented relative to control. […]

[2] = parameters: method as in doi:10.1021/jo01097a026; conditions: for the relevant substitution pattern; cited from earlier work
[3] = tested on: S. aureus cells; experiment: Propidium iodide membrane integrity assay; type: cell-based, Staphylococcus aureus; conditions: for propidium iodide fluorescence vs basal (emission around 615 nm): two hours of treatment, various concentrations
Excerpt: To study whether compounds 1, 2, and 4 do indeed accumulate in the membrane, and yield a depolarising effect, or compromise its integrity we utilised propidium iodide (PI), a red-emissive (λmax(em) = 617 nm) cell-impermeable fluorophore. PI undergoes a fluorescence increase upon internalisation and DNA intercalation, and thus under ordinary circumstances PI fluorescence is quenched, but if membrane integrity is compromised, a fluorescence “turn-on” occurs. After two hours of treatment with 1, 2, and 4, PI fluorescence was compared to basal fluorescence from the fluorophore. […] This clear membrane depolarising effect was less obvious for 4, and follows the trend of the observed transport, and toxicity results. However, it is of note that each compound can effectively promote an influx of PI through membrane depolarisation.
To further investigate the rate of this phenomenon, PI fluorescence was monitored as a function of time, upon treatment of S. aureus with 1 at a concentration of 50 μM (Fig. 4B).
1 mL aliquots of S. aureus cultures brought to early stationary phase overnight were brought to an OD600 = 0.2 and 100 µL of this suspension was added to 96 well plates, whereafter 100 µL of PBS containing; no compound (- control), or compound (2x desired concentration) was added to the suspension. The resultant mixture was incubated at 37 °C for 2 hr whereafter fluorescence intensity from PI (DNA bound form) was quanitified (λ exc/em = 535/615 nm) using a Clariostar plate reader. In the case of time course experiments, Measurement cycles were set for two hours, following addition of the respective compound (T0). Fluorescence was subsequently plotted as F/F0. […]
Statistical analysis of biological data: All biological experiments were carried out in triplicate, making use of cells of differing origins, on three independent occasions. With experiments concerning the use of 96-well plates, all experiments were carried out as three biological replicates of eight technical replicates. All data is presented as the mean + SEM of each replicate, unless specified otherwise. All statistical analysis and significance determination was carried out using the Graphpad Prism 8.0.1 software package.

[4] = tested on: S. aureus cells; experiment: MQAE chloride influx assay; type: cell-based, Staphylococcus aureus; conditions: 5 min, MQAE fluorescence fitted to Stern–Volmer equation
Experimental: To study this, we utilised N-(ethoxycarbonylmethyl)-6-methoxyquinolinium bromide (MQAE) as a fluorescent reporter for cellular Cl^− levels. MQAE fluorescence is highly sensitive to Cl^− flux, where increased cytosolic Cl^− concentration gives rise to a collisional quenching effect. […] To do this, cells were pre-treated with MQAE and then exposed to varying concentrations of 1, 2 and 4, whereafter MQAE fluorescence was read at T = 5 min, and plotted relative to control (Fig. 3).
Furthermore, using the fluorescence data acquired from these assays, and fitting to the Stern–Volmer equation, we could approximate the increased concentration of Cl^− with respect to basal fluorescence for each of the concentrations studied (Table 3). […]
MQAE chloride influx assay
From an overnight culture brought to stationary phase (OD600 = ~1.0) was taken samples, brought to an OD600 = 0.2, which were treated with N-Ethoxycarbonylmethyl-6-methoxyquinolium Bromide (MQAE) (10 mM) for 1 h at 37 0C. Subsequently, cells were washed with & resuspended in PBS. 2 mL of samples were taken & transferred to a fluorescence cuvette, whereupon fluorescence was read (λexc = 350 nm (slit width = 5 nm) λem = 460 nm (slit width = 5 nm)) using a Cary Eclipse Fluorescence Spectrophotometer (Agilent Technologies). Subsequently samples were treated with the Compound of interest for 5 mins whereafter fluorescence was measured as previous, with intensity plotted relative to control, […]
or measured over the course of 2 hrs, starting at T0 (upon addition of compound).
Alternatively, 200 µL aliquots of cell suspension were added to a 96-well plate, to the desired quantity, and were either untreated (control), or treated with the compound of interest for 5 mins, whereafter fluorescence was read using a BMG Labtech Clariostar Plus platereader, and plotted relative to control. […]
Subsequently, cells were resuspended in 1 mL PBS, and treated with a the respective fluorophore or compound of interest at the specified concentration or […]

[5] = 1H NMR titration with TBACl, Cl− binding; conditions: association constant towards Cl−, compound 2.5 mM, 95% DMSO-d6, 1:1 binding model (Bindfit), errors below 10%
Experimental: To verify if 1–6 formed host–guest complexes with Cl^− in solution, ^1H NMR titrations of each compound (2.5 mM) with TBACl were carried out in DMSO-d6. Increasing equivalents of Cl^− were incrementally added, with spectral information obtained upon addition of each molar equivalent of Cl^−. […] Taking 1 as an example (Fig. 2), upon addition of sequential aliquots of Cl^− there is a clear downfield shift of both squaramide NHs, with minor contributions to the binding cleft derived from the ortho-aryl protons of the aniline of 1. The binding data from each titration was fitted to a 1 : 1 binding model using the Bindfit[36] open access software, and the results are tabulated below (Table 1), alongside the respective Hammett constant for the relevant substitution pattern.[37] […] This aligns with previously reported receptors,[38] where compounds containing CF3 substituents in particular are known to have increased anion binding affinity as well as transport ability.[39]

[6] = Staphylococcus aureus, MRSA, read-out: MRSA IC50, growth (OD 600 nm) relative to control, 24 h, 37 °C
[7] = Staphylococcus aureus, MRSA, read-out: MRSA IC80, growth (OD 600 nm) relative to control, 24 h, 37 °C

Compound | IC50 [1, 6] [µM] | IC80 [1, 7] [µM] | IC50 ([1]; read-out: MRSA IC50, growth (OD 600 nm) relative to control, 37 °C) [µM] | Hammett parameter (σ) [2] | propidium iodide fluorescence as a function of time ([3]; 50 μM, over two hours) | propidium iodide fluorescence vs basal (emission around 615 nm) [3] | Increase in chloride concentration from basal level [Clθ] (mM) ([4]; 10 μM compound) | Increase in chloride concentration from basal level [Clθ] (mM) ([4]; 50 μM compound) | Increase in chloride concentration from basal level [Clθ] (mM) ([4]; 100 μM compound) | Increase in chloride concentration from basal level [Clθ] (mM) ([4]; 200 μM compound) | K a [5] [M⁻¹] | MRSA IC80 ([1]; growth (OD 600 nm) relative to control, 37 °C) | IC80 ([1]; read-out: MRSA IC80, growth (OD 600 nm) relative to control, 37 °C) [µM]
O=c1c(Nc2cc(C(F)(F)F)cc(C(F)(F)F)c2)c(NC23CC4CC(CC(C4)C2)C3)c1=O [Compound 1] | 1.56 | 200 | 1.6 | 0.86 | increase in the fluorescence of PI | greatly increased | +0.31 (±0.02) mM | +1.44 (±0.16) mM | +4.22 (±2.01) mM | +13.31 (±3.05) mM | 235 |  | 
O=c1c(Nc2ccc(Cl)c(Cl)c2)c(NC23CC4CC(CC(C4)C2)C3)c1=O [Compound 2] | 25 | > 200 |  | 0.6 |  | greatly increased | +0.21 (±0.02) mM | +1.53 (±0.07) mM | +2.91 (±0.02) mM | +5.49 (±0.01) mM | 263 | exceeded the testing range | 
O=c1c(Nc2ccc([N+](=O)[O-])cc2)c(NC23CC4CC(CC(C4)C2)C3)c1=O [Compound 4] | 50 | > 200 |  | 0.78 |  | less obvious | +0.61 (±0.07) mM | +1.74 (±0.02) mM | +3.57 (±0.18) mM | +10.19 (±0.08) mM | 202 |  | > 200

Source: PMC11788822, “Uncovering the potent antimicrobial activity of squaramide based anionophores – chloride transport and membrane disruption” (Chemical Science, 2025)
